Key:
Format in all cases: in vivo
[1] = system: barnyardgrass (Echinochloa crus-galli); experiment: Test G Pre-Emergence Protocol; settings: Echinochloa crus-galli, pre-emergence, 312 h, evaluated after 13 days; for pest or weed control at 15.625 g/ha: 15.625 g ai/ha, read-out: Barnyard grass damage rating (100=total damage to plant; 0=no damage to plant); for pest or weed control at 62.5 g/ha: 62.5 g ai/ha, 100=total damage to plant, 0=no damage to plant, read-out: plant damage rating, Barnyardgrass; for pest or weed control at 250 g/ha: 250 g ai/ha, read-out: Barnyardgrass damage rating (100=total damage to plant; 0=no damage to plant)
Procedure, shortened: (§1)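 Seeds were sown in standard soil and kept one day in a glasshouse (24/16° C day/night, 14 h light, 65% humidity), then sprayed with compound in acetone/water (50:50) containing 0.5% Tween 20 at 15.625, 62.5 or 250 g/ha. Damage was scored after 13 days (0 = none, 100 = total).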

[2] = system: ivy-leaved morning glory (Ipomoea hederacea); experiment: Test G Pre-Emergence Protocol; settings: Ipomoea, pre-emergence, 312 h, evaluated after 13 days; for pest or weed control at 15.625 g/ha: 15.625 g ai/ha, read-out: Morning-glory, Ivy-leaved damage rating (100=total damage to plant; 0=no damage to plant); for pest or weed control at 250 g/ha: 250 g ai/ha, read-out: Morningglory, Ivy-leaved damage rating (100=total damage to plant; 0=no damage to plant); for pest or weed control at 62.5 g/ha: 62.5 g ai/ha, 100=total damage to plant, 0=no damage to plant, read-out: plant damage rating, Morningglory, Ivy-leaved
Procedure, shortened: as §1

[3] = system: corn (Zea mays); experiment: Test G Pre-Emergence Protocol; settings: Zea mays, pre-emergence, 312 h, evaluated after 13 days; for plant injury at 15.625 g/ha: 15.625 g ai/ha; for plant injury at 15.625 g/ha / plant injury at 250 g/ha: read-out: Corn damage rating (100=total damage to plant; 0=no damage to plant); for plant injury at 62.5 g/ha: 62.5 g ai/ha, 100=total damage to plant, 0=no damage to plant, read-out: plant damage rating, Corn; for plant injury at 250 g/ha: 250 g ai/ha
Procedure, shortened: as §1

[4] = system: velvetleaf (Abutilon theophrasti); experiment: Test G Pre-Emergence Protocol; settings: Abutilon theophrasti, pre-emergence, 312 h, evaluated after 13 days; for pest or weed control at 15.625 g/ha: 15.625 g ai/ha; for pest or weed control at 15.625 g/ha / pest or weed control at 250 g/ha: read-out: Velvetleaf damage rating (100=total damage to plant; 0=no damage to plant); for pest or weed control at 62.5 g/ha: 62.5 g ai/ha, 100=total damage to plant, 0=no damage to plant, read-out: plant damage rating, Velvetleaf; for pest or weed control at 250 g/ha: 250 g ai/ha
Procedure, shortened: as §1

[5] = system: redroot pigweed (Amaranthus retroflexus); experiment: Test G Pre-Emergence Protocol; settings: Amaranthus retroflexus, pre-emergence, 312 h, evaluated after 13 days; for pest or weed control at 15.625 g/ha: 15.625 g ai/ha; for pest or weed control at 15.625 g/ha / pest or weed control at 250 g/ha: read-out: Pigweed, Redroot damage rating (100=total damage to plant; 0=no damage to plant); for pest or weed control at 62.5 g/ha: 62.5 g ai/ha, 100=total damage to plant, 0=no damage to plant, read-out: plant damage rating, Pigweed, Redroot; for pest or weed control at 250 g/ha: 250 g ai/ha
Procedure, shortened: as §1

[6] = system: giant foxtail (Setaria faberi); experiment: Test G Pre-Emergence Protocol; settings: Setaria faberi, pre-emergence, 312 h, evaluated after 13 days; for pest or weed control at 15.625 g/ha: 15.625 g ai/ha; for pest or weed control at 15.625 g/ha / pest or weed control at 250 g/ha: read-out: Foxtail, Giant damage rating (100=total damage to plant; 0=no damage to plant); for pest or weed control at 62.5 g/ha: 62.5 g ai/ha, 100=total damage to plant, 0=no damage to plant, read-out: plant damage rating, Foxtail, Giant; for pest or weed control at 250 g/ha: 250 g ai/ha
Procedure, shortened: as §1

[7] = system: barnyardgrass (Echinochloa crus-galli); experiment: Test G Post-Emergence Protocol; settings: Echinochloa crus-galli, post-emergence, 312 h; for pest or weed control at 15.625 g/ha: 15.625 g ai/ha, evaluated after 13 days (100=total damage to plant; 0=no damage to plant), read-out: Barnyardgrass damage rating; for pest or weed control at 62.5 g/ha: 62.5 g ai/ha, read-out: Barnyardgrass damage rating (100=total damage to plant; 0=no damage to plant); for pest or weed control at 62.5 g/ha / pest or weed control at 250 g/ha: evaluated after 13 days; for pest or weed control at 250 g/ha: 250 g ai/ha, read-out: damage to plant, Barnyardgrass (100=total damage to plant; 0=no damage to plant)
Procedure, shortened: (§2)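 Sow in soil; grow 8 d (24/16 °C, 14 h light, 65% humidity); spray 15.625/62.5/250 g/ha in acetone:water 50:50 + 0.5% Tween 20; grow on, water twice daily; score damage 0–100 at 13 d.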

[8] = system: ivy-leaved morning glory (Ipomoea hederacea); experiment: Test G Post-Emergence Protocol; settings: Ipomoea, post-emergence, 312 h; for pest or weed control at 15.625 g/ha: 15.625 g ai/ha, evaluated after 13 days (100=total damage to plant; 0=no damage to plant), read-out: Morningglory, Ivy-leaved damage rating; for pest or weed control at 62.5 g/ha: 62.5 g ai/ha, read-out: Morningglory, Ivy-leaved damage rating (100=total damage to plant; 0=no damage to plant); for pest or weed control at 62.5 g/ha / pest or weed control at 250 g/ha: evaluated after 13 days; for pest or weed control at 250 g/ha: 250 g ai/ha, read-out: damage to plant, Morningglory, Ivy-leaved (100=total damage to plant; 0=no damage to plant)
Procedure, shortened: as §2

[9] = system: corn (Zea mays); experiment: Test G Post-Emergence Protocol; settings: Zea mays, post-emergence, 312 h; for plant injury at 15.625 g/ha: 15.625 g ai/ha, evaluated after 13 days (100=total damage to plant; 0=no damage to plant), read-out: Corn damage rating; for plant injury at 62.5 g/ha: 62.5 g ai/ha, read-out: Corn damage rating (100=total damage to plant; 0=no damage to plant); for plant injury at 62.5 g/ha / plant injury at 250 g/ha: evaluated after 13 days; for plant injury at 250 g/ha: 250 g ai/ha, read-out: damage to plant, Corn (100=total damage to plant; 0=no damage to plant)
Procedure, shortened: as §2

[10] = system: velvetleaf (Abutilon theophrasti); experiment: Test G Post-Emergence Protocol; settings: Abutilon theophrasti, post-emergence, 312 h; for pest or weed control at 15.625 g/ha: 15.625 g ai/ha, evaluated after 13 days (100=total damage to plant; 0=no damage to plant), read-out: Velvetleaf damage rating; for pest or weed control at 62.5 g/ha: 62.5 g ai/ha, read-out: Velvetleaf damage rating (100=total damage to plant; 0=no damage to plant); for pest or weed control at 62.5 g/ha / pest or weed control at 250 g/ha: evaluated after 13 days; for pest or weed control at 250 g/ha: 250 g ai/ha, read-out: damage to plant, Velvetleaf (100=total damage to plant; 0=no damage to plant)
Procedure, shortened: as §2

[11] = system: redroot pigweed (Amaranthus retroflexus); experiment: Test G Post-Emergence Protocol; settings: Amaranthus retroflexus, post-emergence, 312 h; for pest or weed control at 15.625 g/ha: 15.625 g ai/ha, evaluated after 13 days (100=total damage to plant; 0=no damage to plant), read-out: Pigweed, Redroot damage rating; for pest or weed control at 62.5 g/ha: 62.5 g ai/ha, read-out: Pigweed, Redroot damage rating (100=total damage to plant; 0=no damage to plant); for pest or weed control at 62.5 g/ha / pest or weed control at 250 g/ha: evaluated after 13 days; for pest or weed control at 250 g/ha: 250 g ai/ha, read-out: damage to plant, Pigweed, Redroot (100=total damage to plant; 0=no damage to plant)
Procedure, shortened: as §2

[12] = system: giant foxtail (Setaria faberi); experiment: Test G Post-Emergence Protocol; settings: Setaria faberi, post-emergence, 312 h; for pest or weed control at 15.625 g/ha: 15.625 g ai/ha, evaluated after 13 days (100=total damage to plant; 0=no damage to plant), read-out: Foxtail, Giant damage rating; for pest or weed control at 62.5 g/ha: 62.5 g ai/ha, read-out: Foxtail, Giant damage rating (100=total damage to plant; 0=no damage to plant); for pest or weed control at 62.5 g/ha / pest or weed control at 250 g/ha: evaluated after 13 days; for pest or weed control at 250 g/ha: 250 g ai/ha, read-out: damage to plant, Foxtail, Giant (100=total damage to plant; 0=no damage to plant)
Procedure, shortened: as §2

Row | Compound | pest or weed control at 15.625 g/ha [1] | pest or weed control at 62.5 g/ha [1] | pest or weed control at 250 g/ha [1] | pest or weed control at 250 g/ha [2] | plant injury at 15.625 g/ha [3] | plant injury at 62.5 g/ha [3] | plant injury at 250 g/ha [3] | pest or weed control at 15.625 g/ha [4] | pest or weed control at 62.5 g/ha [4] | pest or weed control at 250 g/ha [4] | pest or weed control at 15.625 g/ha [5] | pest or weed control at 62.5 g/ha [5] | pest or weed control at 250 g/ha [5] | pest or weed control at 15.625 g/ha [6] | pest or weed control at 62.5 g/ha [6] | pest or weed control at 250 g/ha [6] | pest or weed control at 15.625 g/ha [7] | pest or weed control at 62.5 g/ha [7] | pest or weed control at 250 g/ha [7] | pest or weed control at 15.625 g/ha [8] | further results
1 | CSc1nc(NC(=O)[C@@H]2C(=O)N(C)C[C@H]2c2ccc(C(F)(F)F)cc2)n[nH]1 (racemic) [Compound 1539] | 0% | 10% | 20% | 0% | 0% | 0% | 0% | 0% | 0% | 0% | 0% | 0% | 0% | 0% | 10% | 20% | 0% | 0% | 0% | 0% | pest or weed control at 15.625 g/ha [2]: 0%; pest or weed control at 62.5 g/ha [8]: 0%; pest or weed control at 250 g/ha [8]: 0%; plant injury at 15.625 g/ha [9]: 0%; plant injury at 62.5 g/ha [9]: 0%; plant injury at 250 g/ha [9]: 0%; pest or weed control at 15.625 g/ha [10]: 0%; pest or weed control at 62.5 g/ha [10]: 0%; pest or weed control at 250 g/ha [10]: 0%; pest or weed control at 15.625 g/ha [11]: 0%; pest or weed control at 62.5 g/ha [11]: 0%; pest or weed control at 250 g/ha [11]: 0%; pest or weed control at 15.625 g/ha [12]: 0%; pest or weed control at 62.5 g/ha [12]: 0%; pest or weed control at 250 g/ha [12]: 0%
2 | CN1C[C@@H](c2ccc(C(F)(F)F)cc2)[C@H](C(=O)Nc2cc(C(C)(C)C)[nH]n2)C1=O (racemic) [Compound 1545] | 0% | 0% | 0% | 0% | 0% | 0% | 0% | 0% | 0% | 0% | 0% | 0% | 0% | 0% | 0% | 0% | 0% | 0% | 0% | 0% | pest or weed control at 62.5 g/ha [2]: 0%; pest or weed control at 62.5 g/ha [8]: 0%; pest or weed control at 250 g/ha [8]: 0%; plant injury at 15.625 g/ha [9]: 0%; plant injury at 62.5 g/ha [9]: 0%; plant injury at 250 g/ha [9]: 0%; pest or weed control at 15.625 g/ha [10]: 0%; pest or weed control at 62.5 g/ha [10]: 0%; pest or weed control at 250 g/ha [10]: 0%; pest or weed control at 15.625 g/ha [11]: 0%; pest or weed control at 62.5 g/ha [11]: 0%; pest or weed control at 250 g/ha [11]: 0%; pest or weed control at 15.625 g/ha [12]: 0%; pest or weed control at 62.5 g/ha [12]: 0%; pest or weed control at 250 g/ha [12]: 0%
3 | CN1C[C@@H](c2ccc(C(F)(F)F)cc2)[C@H](C(=O)Nc2nccc(C(F)(F)F)n2)C1=O (racemic) [Compound 1547] | 0% | 0% | 0% | 0% | 0% | 0% | 0% | 0% | 0% | 0% | 0% | 0% | 0% | 0% | 0% | 0% | 0% | 0% | 0% | 0% | pest or weed control at 15.625 g/ha [2]: 0%; pest or weed control at 62.5 g/ha [2]: 0%; pest or weed control at 62.5 g/ha [8]: 0%; pest or weed control at 250 g/ha [8]: 0%; plant injury at 15.625 g/ha [9]: 0%; plant injury at 62.5 g/ha [9]: 0%; plant injury at 250 g/ha [9]: 0%; pest or weed control at 15.625 g/ha [10]: 0%; pest or weed control at 62.5 g/ha [10]: 0%; pest or weed control at 250 g/ha [10]: 0%; pest or weed control at 15.625 g/ha [11]: 0%; pest or weed control at 62.5 g/ha [11]: 0%; pest or weed control at 250 g/ha [11]: 0%; pest or weed control at 15.625 g/ha [12]: 0%; pest or weed control at 62.5 g/ha [12]: 0%; pest or weed control at 250 g/ha [12]: 0%
